Measured values as given in patent US20260306579A1, “COMPOSITIONS AND METHODS FOR TREATMENT OF SEPTIC SHOCK” (PEROXITECH THERAPEUTICS, INC., priority 2023, published 2026).
Entries after “also recorded” stand apart in the source; their conditions may differ. Peptide text beside a SMILES is read from it.

Assays:
pancreatic PLA2 = settings: role: inhibitor; background statement; cited from earlier work
Prdx6 = settings: role: inhibitor; background statement; cited from earlier work
ALI in mice = settings: variety of mouse models of ALI; cited from earlier work
[1] = test system: LPS-induced sepsis in pigs; experiment: Adverse effects in the LPS-induced ALI model in pigs / tolerability statements; parameters: species or system Yorkshire pigs (Sus scrofa domesticus); settings: pig, in vivo; listed as PIP-2
Method: Prior to start of the experiment, the battery of systemic, cardiovascular, and pulmonary tests was carried out. These are called baseline measurements. Pigs were infused IV (zero time) with: Group 1, liposomes alone, no LPS (control, n=2); Group 2, LPS+liposomes (ALI untreated, n=6); and Group 3, LPS+PIP-2 in liposomes (ALI treated, n=12). Technical personnel responsible for animal care were “blinded” to the treatment conditions. LPS was given as an IV infusion of 50 ug/kg body weight over the first hour of the experiment. […] Either liposomes alone (Group 2) or PIP-2 in liposomes (Group 3) was infused as a “slow” bolus at the end of the LPS infusion. Liposomes were given at 2.22 mg/kg body weight. PIP-2 was given at 20 mg/kg body weight. Based on the measured encapsulation efficiency of ~15-20%, the IV administered PIP-2 was ~3-4 mg/kg body weight in liposomes and the remainder was in aqueous solution; presumably, the encapsulated PIP-2 was internalized by cells while the unencapsulated PIP-2 remained extracellular.

[2] = discussion statement, no data shown; cited from earlier work

Molecule | inhibition of other PLA2 enzymes (in words) (pancreatic PLA2) | inhibition of aiPLA2 / PLA2 activity of Prdx6 (in words) (Prdx6) | effect on lung injury in mouse ALI models (in words) (ALI in mice) | adverse side-effects / toxicity (in words) [1] | tissue half-life (in words) [2]
CCCCCCCCCCCCCCCCOCC(COCC(F)(F)F)OP(=O)(O)OC (stereo not drawn) [MJ33] | inhibits various PLA2 enzymes such as pancreatic PLA2 | bind to Prdx6 preventing aiPLA2 activity | can significantly ameliorate lung injury; also recorded: markedly protective effect against lung injury | – | –
CC[C@H](C)[C@H](NC(=O)[C@H](CCC(N)=O)NC(=O)[C@H](Cc1c[nH]cn1)NC(=O)[C@H](CCCNC(=N)N)NC(=O)[C@H](Cc1ccccc1)NC(=O)[C@H](CC(=O)O)NC(=O)[C@H](Cc1c[nH]cn1)NC(=O)[C@@H](N)CC(C)C)C(=O)N[C@@H](CC(C)C)C(=O)O [SEQ ID NO: 2] (H-LHDFRHQIL-OH) | – | – | – | no evidence of adverse side-effects; also recorded: non-toxic | relatively favorable tissue half-life
SP-A: surfactant protein A (SP-A), 246 amino acids of human SP-A | – | bind to Prdx6 preventing aiPLA2 activity; also recorded: binds to Prdx6 and inhibits its aiPLA2 activity | – | – | –
